Data published in patent US20260219274A1, “POLYOL SWEETNERS AND CARDIOVASCULAR AND THROMBOTIC EVENT RISK” (THE CLEVELAND CLINIC FOUNDATION, priority 2023, published 2026).

Assays:
human whole blood = test: Whole blood in vitro thrombosis assay (collagen-coated microfluidic chip); assay type: cell-based
Protocol: Shear flow experiments of whole blood were performed with a Cellix Microfluidics System (Cellix, Dublin, Ireland) as previously described and outlined in additional methods.^41-43 The extent of platelet activation and adhesion to the collagen matrix was quantified using computer assisted tomographic analyses, as previously described.^40
Shear flow experiments of whole blood were performed with a Cellix Microfluidics System (Cellix, Dublin, Ireland) as previously described.^6-8 Before use, the micro channels of a Vena8 Fluoro+ biochip were coated with type 1 collagen (15 μL; 50 μg/mL) and each channel of the biochip then washed with PBS using the Mirus Nanopump. Images were taken with an HC Plan Apo 20X/0.7NA lens on a Leica DMI6000 inverted microscope equipped with an environmental chamber and a Hamamatsu ImagEM cooled CCD camera. […] Images of platelets adhering to the collagen matrix were recorded every 5 s. […] The extent of platelet activation and adhesion to the collagen matrix was quantified using computer assisted tomographic analyses as previously described.^5 Briefly, images of CD42b stained platelet thrombi were quantified using Image Pro plus software (Media Cybernetics, Rockville, Maryland, USA). The intensity threshold was chosen to select for specific staining and the integrated optical density (IOD, Area×Intensity) quantified. […]

[1] = Xylitol intervention study: postprandial plasma xylitol levels and elimination; assay type: in vivo
Protocol: A third xylitol intervention study (clinicaltrials.gov number: NCT04731363) included 10 prospectively recruited healthy volunteers (35±11 years of age, 50% male, nonsmokers without CVD, hypertension, or diabetes). Fasting (overnight) subjects were provided a standardized artificially sweetened beverage (300 mL) containing 30 g of xylitol dissolved in water with instructions to rapidly consume the drink (within 2 minutes). In the first part of xylitol ingestion studies, pharmacokinetics studies focused on post-prandial plasma levels and time course of elimination of xylitol. For LC-MS/MS analysis of xylitol, serial venous blood and urine sampling was performed at baseline, 30 min, 1 h, 4 h, 6 h and 24 h to establish postprandial peak levels and the time course of xylitol elimination in the first 4 subjects. After we noticed that xylitol levels were rapidly cleared with postprandial xylitol peak levels at 30 min after ingestion in all 4 subjects, we streamlined our protocol in the interest of being both practical and less demanding on subjects, and sampled blood and urine at baseline and after 30 min for the remainder of subjects.
Stable-isotope-dilution LC-MS/MS was developed to specifically quantify xylitol in human and mouse plasma, urine and feces (fecal pellets were dissolved in water and supernatant subjected to LC-MS/MS). Ice cold methanol (800 μL) and internal standard (^13C2-arabitol) were added to the plasma samples (20 μL) or urine (20 μL) previously diluted in MQ water, followed by vortexing and centrifuging (21,000×g; 4° C. for 15 min). The clear supernatant (800 μL) was transferred into a clean, labeled glass tubes (Borosilicate glass 12×75 mm) and dried in a speed vacuum concentrator (Speed vac plus, SC210, Thermo Sevant). Acetylation was used since xylitol is poorly ionizable in order to achieve better retention on the reverse phase column and separation from other structural isomers as well as better ionization to achieve better sensitivity. The dry residue was reconstituted in acetic anhydride (100 μL) and 4-Dimethylaminopyridine (DMAP) in pyridine (100 μl; 1 mg/mL), sealed with safety caps, vortexed and heated (45 min at 80° C.) followed with drying under nitrogen. Dried residues were dissolved in HCl in water (0.1 M; 0.5 mL) and extracted with ethylacetate (2.0 mL). Ethylacetate layer was transferred into a clean glass tube (Borosilicate glass 12×75 mm) and dried under nitrogen. The dry residue was reconstituted in ammonium formate in a mixture of methanol:water (100 μL; 50:50 v/v with 10 mM ammonium formate), tubes were vortexed and liquid was transferred to glass vials with micro-insets and caped. LC-MS/MS analysis was performed on a chromatographic system consisting of two Shimadzu LC-30 AD pumps (Nexcra X2), a CTO 20AC oven operating at 30° C., and a SIL-30 AC-MP autosampler in tandem with a triple quadruple mass spectrometer (8050 series, Shimadzu Scientific Instruments, Inc., Columbia, MD, USA). For chromatographic separation, a Kinetex C18 column (50 mm×2.1 mm; 2.6 μm) (Cat #00B-4462-AN, Phenomenex, Torrance, CA) was used. […] Electrospray ionization in the positive mode was used with multiple reaction monitoring (MRM) for detection of endogenous and stable isotope labeled internal standards. The following transitions were used: m/z 380 [M^+NH4]^+ […] for xylitol, arabitol and ribitol and m/z 382 [M+NH4]^+→305 for [^13C2]-arabitol. The following ion source parameters were applied: nebulizing gas flow, 3 L/min; heating gas flow, 10 L/min; interface temperature, 300° C.; desolvation line temperature, 250° C.; heat block temperature, 400° C.; and drying gas flow, 10 L/min. Accuracy and precision of the method to quantify xylitol (separated from its structural isomers arabitol and ribitol) were assessed by a standard addition method of pure synthetic standard into different plasma pools. […]

SMILES | rate of collagen-dependent platelet adhesion and thrombus formation (human whole blood; erythritol (45 μM), physiological shear conditions) | concentration at 30 min ([1]; both sexes, human, plasma, oral, 30 min following ingestion of 30 g xylitol, read-out: plasma levels of xylitol, median [IQR]) [nM] | concentration at 4 h ([1]; both sexes, human, plasma, oral, 4 h after 30 g xylitol, read-out: plasma xylitol levels, median [IQR]) [nM] | concentration at 6 h ([1]; both sexes, human, plasma, oral, 6 h after 30 g xylitol, read-out: plasma xylitol levels, median [IQR]) [nM] | half-life ([1]; both sexes, human, plasma, 30 g xylitol oral) [min] | time of postprandial xylitol peak levels ([1]; first 4 subjects) [min] | time to return of postprandial plasma levels to near baseline ([1]; healthy volunteers) [h] | oral absorption in humans ([1]; oral ingestion) | rate of collagen-dependent platelet adhesion and spreading (human whole blood; xylitol, physiological shear flow)
OC[C@@H](O)[C@@H](O)CO [erythritol] | significant enhancement | – | – | – | – | – | – | – | –
OC[C@@H](O)[C@H](O)[C@@H](O)CO [xylitol] | – | 312000 | 1870 | 670 | 12.6 | 30 | ≤ 6 | readily absorbed | substantially accelerated
